Experimental data taken from patent US11530221B2, “Pyrimido[4,5-d]pyrimidin-2-one derivatives as protein kinase inhibitors” (KOREA INSTITUTE OF SCIENCE AND TECHNOLOGY, priority 2019, dated 2022).

Assays:
Type in all cases: biochemical
[1] = biological target: BLK (Homo sapiens, UniProt P51451); test: Full kinase panel, single concentration: BLK; settings: single concentration of 1 μM; read-out: residual enzyme activity (%) BLK
Procedure: (§1) In order to measure the inhibitory activity (% inhibitory capacity) against protein kinases of the compounds of the present invention, biochemical assays were performed using a full kinase panel.
(§2) The experimental compounds used herein were the compounds of Compound Nos. 1 and 33. The residual enzyme activity (%) was calculated by measuring the inhibitory activity against kinases upon treatment with the experimental compound at a single concentration of 1 μM. Kinases having calculated residual enzyme activity (%) of 30% or less (that is, inhibition of 70% or more) are shown below.

[2] = biological target: T1, c-Src (Homo sapiens, UniProt P12931); test: Full kinase panel, single concentration: c-Src; settings: single concentration of 1 μM; read-out: residual enzyme activity (%) c-Src
Procedure: as §1, §2

[3] = biological target: T2, LCK (Homo sapiens, UniProt P06239); test: IC50 inhibitory activity against LCK kinase; settings: read-out: LCK IC50
Procedure: (§3) IC50 values were calculated by measuring the inhibitory activity against LCK, c-Src, p38a/MAPK14, ABL1, DDR1 and FGR kinases of the compounds of the present invention.

[4] = biological target: T3, DDR1 (Homo sapiens, UniProt Q08345); test: IC50 inhibitory activity against DDR1 kinase; settings: read-out: DDR1 IC50
Procedure: as §3

[5] = biological target: CSK (Homo sapiens, UniProt P41240); test: Full kinase panel, single concentration: CSK; settings: single concentration of 1 μM; read-out: residual enzyme activity (%) CSK
Procedure: as §1, §2

[6] = biological target: T3, DDR1; test: Full kinase panel, single concentration: DDR1; settings: single concentration of 1 μM; read-out: residual enzyme activity (%) DDR1
Procedure: as §1, §2

[7] = biological target: T4, LYN (Homo sapiens, UniProt P07948); test: IC50 inhibitory activity against LYN kinase
[8] = biological target: T5, DDR2 (Homo sapiens, UniProt Q16832); test: Full kinase panel, single concentration: DDR2; settings: single concentration of 1 μM; read-out: residual enzyme activity (%) DDR2
T5 sequence (Q16832 22-855): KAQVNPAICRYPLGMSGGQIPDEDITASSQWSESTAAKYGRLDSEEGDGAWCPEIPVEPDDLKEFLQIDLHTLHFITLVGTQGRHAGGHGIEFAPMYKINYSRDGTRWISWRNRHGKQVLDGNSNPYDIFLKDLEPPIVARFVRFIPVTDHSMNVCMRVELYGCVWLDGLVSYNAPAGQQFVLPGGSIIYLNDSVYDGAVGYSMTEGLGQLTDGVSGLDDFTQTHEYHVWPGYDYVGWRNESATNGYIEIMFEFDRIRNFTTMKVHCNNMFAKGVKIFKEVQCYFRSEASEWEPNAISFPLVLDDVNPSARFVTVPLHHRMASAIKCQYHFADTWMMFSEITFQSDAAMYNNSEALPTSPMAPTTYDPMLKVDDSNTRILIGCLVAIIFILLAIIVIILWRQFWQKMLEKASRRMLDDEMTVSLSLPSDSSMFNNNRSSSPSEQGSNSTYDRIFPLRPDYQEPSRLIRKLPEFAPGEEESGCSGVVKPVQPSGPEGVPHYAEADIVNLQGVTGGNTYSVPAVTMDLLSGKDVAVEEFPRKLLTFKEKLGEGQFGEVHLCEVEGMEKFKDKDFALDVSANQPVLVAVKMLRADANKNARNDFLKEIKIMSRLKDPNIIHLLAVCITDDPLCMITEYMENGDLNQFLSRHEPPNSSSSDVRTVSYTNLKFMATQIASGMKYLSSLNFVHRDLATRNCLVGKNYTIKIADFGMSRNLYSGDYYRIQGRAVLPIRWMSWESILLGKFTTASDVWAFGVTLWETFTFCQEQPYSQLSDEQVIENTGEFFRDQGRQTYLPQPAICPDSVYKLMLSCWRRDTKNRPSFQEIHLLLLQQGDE
Procedure: as §1, §2

[9] = biological target: ABL2 (Homo sapiens, UniProt P42684); test: Full kinase panel, single concentration: ABL2; settings: single concentration of 1 μM; read-out: residual enzyme activity (%) ABL2
Procedure: as §1, §2

[10] = biological target: T6, FGR (Homo sapiens, UniProt P09769); test: Full kinase panel, single concentration: FGR; settings: single concentration of 1 μM; read-out: residual enzyme activity (%) FGR
Procedure: as §1, §2

[11] = biological target: p38a/MAPK14 (Homo sapiens, UniProt Q16539); test: IC50 inhibitory activity against p38a/MAPK14 kinase; settings: read-out: p38a/MAPK14 IC50
Procedure: as §3

[12] = biological target: RAF1 (Homo sapiens, UniProt P04049); test: Full kinase panel, single concentration: RAF1; settings: single concentration of 1 μM; read-out: residual enzyme activity (%) RAF1
Procedure: as §1, §2

[13] = biological target: T4, LYN; test: Full kinase panel, single concentration: LYN; settings: single concentration of 1 μM; read-out: residual enzyme activity (%) LYN
Procedure: as §1, §2

[14] = biological target: T2, LCK; test: Full kinase panel, single concentration: LCK; settings: single concentration of 1 μM; read-out: residual enzyme activity (%) LCK
Procedure: as §1, §2

[15] = biological target: T6, FGR; test: IC50 inhibitory activity against FGR kinase; settings: read-out: FGR IC50
Procedure: as §3

[16] = biological target: ABL1 (Homo sapiens, UniProt P00519); test: IC50 inhibitory activity against ABL1 kinase; settings: read-out: ABL1 IC50
Procedure: as §3

[17] = biological target: HCK (Homo sapiens, UniProt P08631); test: Full kinase panel, single concentration: HCK; settings: single concentration of 1 μM; read-out: residual enzyme activity (%) HCK
Procedure: as §1, §2

[18] = biological target: T1, c-Src; test: IC50 inhibitory activity against c-Src kinase; settings: read-out: c-Src IC50
Procedure: as §3

[19] = biological target: T7, BMX (Homo sapiens, UniProt P51813); test: Full kinase panel, single concentration: BMX; settings: single concentration of 1 μM; read-out: residual enzyme activity (%) BMX
T7 sequence (P51813 1-675): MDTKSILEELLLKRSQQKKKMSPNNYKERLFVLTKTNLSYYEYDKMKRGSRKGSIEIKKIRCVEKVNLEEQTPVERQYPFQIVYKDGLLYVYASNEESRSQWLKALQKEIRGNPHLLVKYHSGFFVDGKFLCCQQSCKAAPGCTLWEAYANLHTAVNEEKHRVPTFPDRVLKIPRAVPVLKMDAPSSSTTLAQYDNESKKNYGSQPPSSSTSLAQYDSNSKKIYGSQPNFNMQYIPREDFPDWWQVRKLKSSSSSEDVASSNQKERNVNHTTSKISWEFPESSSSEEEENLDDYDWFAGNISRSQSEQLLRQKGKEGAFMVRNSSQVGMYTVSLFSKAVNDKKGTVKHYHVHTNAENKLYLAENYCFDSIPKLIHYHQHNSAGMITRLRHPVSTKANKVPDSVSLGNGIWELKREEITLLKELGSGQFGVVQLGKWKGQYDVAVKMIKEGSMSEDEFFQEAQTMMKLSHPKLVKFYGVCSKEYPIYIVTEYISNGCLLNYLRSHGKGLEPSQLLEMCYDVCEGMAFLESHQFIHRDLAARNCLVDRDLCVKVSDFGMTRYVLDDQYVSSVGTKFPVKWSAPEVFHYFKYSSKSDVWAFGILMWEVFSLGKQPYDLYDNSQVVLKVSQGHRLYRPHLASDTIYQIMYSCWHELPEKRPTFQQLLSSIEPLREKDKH
Procedure: as §1, §2

[20] = biological target: ABL1 (T315I) (Homo sapiens, UniProt P00519, T315I); test: IC50 inhibitory activity against ABL1 (T315I) kinase; settings: read-out: ABL1 (T315I) IC50
Procedure: as §3

T2 sequence (P06239 whole entry): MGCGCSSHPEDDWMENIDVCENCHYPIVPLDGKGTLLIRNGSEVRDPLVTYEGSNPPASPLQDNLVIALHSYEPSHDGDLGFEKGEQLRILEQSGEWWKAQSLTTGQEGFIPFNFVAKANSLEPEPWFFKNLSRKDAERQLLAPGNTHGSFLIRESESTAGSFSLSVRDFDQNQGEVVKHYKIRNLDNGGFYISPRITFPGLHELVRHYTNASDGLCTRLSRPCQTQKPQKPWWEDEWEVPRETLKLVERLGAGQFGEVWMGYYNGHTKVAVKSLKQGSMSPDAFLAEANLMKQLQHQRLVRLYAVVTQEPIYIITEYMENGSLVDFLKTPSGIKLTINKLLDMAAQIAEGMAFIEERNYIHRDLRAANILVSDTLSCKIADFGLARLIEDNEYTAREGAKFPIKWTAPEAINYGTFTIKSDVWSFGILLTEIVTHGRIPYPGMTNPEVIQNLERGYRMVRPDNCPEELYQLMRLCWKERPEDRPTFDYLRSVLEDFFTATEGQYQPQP
T1 sequence (P12931 whole entry): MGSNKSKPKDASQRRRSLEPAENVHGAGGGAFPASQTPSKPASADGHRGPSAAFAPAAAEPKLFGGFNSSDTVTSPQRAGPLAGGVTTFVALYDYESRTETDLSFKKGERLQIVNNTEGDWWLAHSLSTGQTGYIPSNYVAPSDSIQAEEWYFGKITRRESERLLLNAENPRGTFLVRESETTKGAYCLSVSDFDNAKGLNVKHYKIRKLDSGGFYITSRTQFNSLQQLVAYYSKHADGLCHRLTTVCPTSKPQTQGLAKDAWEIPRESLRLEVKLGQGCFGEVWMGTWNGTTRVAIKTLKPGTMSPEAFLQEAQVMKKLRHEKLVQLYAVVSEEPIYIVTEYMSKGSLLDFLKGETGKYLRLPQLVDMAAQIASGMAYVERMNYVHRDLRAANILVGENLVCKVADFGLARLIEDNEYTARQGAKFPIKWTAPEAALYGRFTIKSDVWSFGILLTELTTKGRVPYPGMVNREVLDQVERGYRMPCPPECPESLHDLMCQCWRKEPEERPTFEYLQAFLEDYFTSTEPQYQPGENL
T6 sequence (P09769 whole entry): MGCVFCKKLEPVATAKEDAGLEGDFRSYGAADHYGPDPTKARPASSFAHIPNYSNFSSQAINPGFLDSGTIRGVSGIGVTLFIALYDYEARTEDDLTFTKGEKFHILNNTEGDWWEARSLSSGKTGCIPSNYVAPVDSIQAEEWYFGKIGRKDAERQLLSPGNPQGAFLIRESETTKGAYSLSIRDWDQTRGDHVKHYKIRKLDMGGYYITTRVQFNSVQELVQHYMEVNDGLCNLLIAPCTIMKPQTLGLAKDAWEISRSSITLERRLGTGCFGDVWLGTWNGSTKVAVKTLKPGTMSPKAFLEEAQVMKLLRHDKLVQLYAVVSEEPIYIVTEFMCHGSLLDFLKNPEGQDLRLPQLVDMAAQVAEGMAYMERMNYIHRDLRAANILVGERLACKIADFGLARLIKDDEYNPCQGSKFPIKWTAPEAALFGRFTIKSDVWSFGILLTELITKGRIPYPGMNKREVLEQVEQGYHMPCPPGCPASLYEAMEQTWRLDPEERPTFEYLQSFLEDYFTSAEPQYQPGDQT
T3 sequence (Q08345 19-913): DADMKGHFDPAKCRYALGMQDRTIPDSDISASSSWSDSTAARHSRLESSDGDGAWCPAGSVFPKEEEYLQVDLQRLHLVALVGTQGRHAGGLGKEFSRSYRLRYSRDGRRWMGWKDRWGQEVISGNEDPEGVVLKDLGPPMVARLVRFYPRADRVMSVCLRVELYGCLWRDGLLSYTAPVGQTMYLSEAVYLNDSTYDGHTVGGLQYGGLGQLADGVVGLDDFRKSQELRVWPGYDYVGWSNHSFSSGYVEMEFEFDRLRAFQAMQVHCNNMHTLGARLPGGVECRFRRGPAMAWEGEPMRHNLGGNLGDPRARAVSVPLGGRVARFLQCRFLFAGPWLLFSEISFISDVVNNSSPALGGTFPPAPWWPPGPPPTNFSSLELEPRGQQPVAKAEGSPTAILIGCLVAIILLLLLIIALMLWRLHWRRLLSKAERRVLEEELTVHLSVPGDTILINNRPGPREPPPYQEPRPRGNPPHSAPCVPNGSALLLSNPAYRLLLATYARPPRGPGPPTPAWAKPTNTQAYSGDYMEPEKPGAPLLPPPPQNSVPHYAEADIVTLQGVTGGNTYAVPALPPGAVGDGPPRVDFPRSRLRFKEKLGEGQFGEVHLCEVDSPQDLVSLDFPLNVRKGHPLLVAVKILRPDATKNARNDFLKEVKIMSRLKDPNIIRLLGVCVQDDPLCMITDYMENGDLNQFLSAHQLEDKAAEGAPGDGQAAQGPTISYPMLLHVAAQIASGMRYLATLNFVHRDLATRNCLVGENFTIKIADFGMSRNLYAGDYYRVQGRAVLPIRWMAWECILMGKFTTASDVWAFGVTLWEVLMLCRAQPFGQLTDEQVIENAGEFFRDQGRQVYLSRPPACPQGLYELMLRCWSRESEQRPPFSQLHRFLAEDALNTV
T4 sequence (P07948 whole entry): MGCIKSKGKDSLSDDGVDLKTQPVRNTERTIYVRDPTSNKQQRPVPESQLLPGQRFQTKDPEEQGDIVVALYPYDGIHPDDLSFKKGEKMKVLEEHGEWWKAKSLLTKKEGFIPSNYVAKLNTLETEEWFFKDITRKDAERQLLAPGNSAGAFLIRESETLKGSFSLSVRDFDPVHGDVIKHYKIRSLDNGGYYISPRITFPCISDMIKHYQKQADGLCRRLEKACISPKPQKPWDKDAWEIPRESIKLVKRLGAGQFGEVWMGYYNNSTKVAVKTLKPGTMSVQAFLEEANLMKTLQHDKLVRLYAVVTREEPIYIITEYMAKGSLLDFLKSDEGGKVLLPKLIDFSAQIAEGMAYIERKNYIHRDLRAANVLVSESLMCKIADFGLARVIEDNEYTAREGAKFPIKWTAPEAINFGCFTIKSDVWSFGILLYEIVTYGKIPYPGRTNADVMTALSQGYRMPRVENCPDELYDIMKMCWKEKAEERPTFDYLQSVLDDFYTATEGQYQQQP
Chain of RAF1 (P04049 whole entry): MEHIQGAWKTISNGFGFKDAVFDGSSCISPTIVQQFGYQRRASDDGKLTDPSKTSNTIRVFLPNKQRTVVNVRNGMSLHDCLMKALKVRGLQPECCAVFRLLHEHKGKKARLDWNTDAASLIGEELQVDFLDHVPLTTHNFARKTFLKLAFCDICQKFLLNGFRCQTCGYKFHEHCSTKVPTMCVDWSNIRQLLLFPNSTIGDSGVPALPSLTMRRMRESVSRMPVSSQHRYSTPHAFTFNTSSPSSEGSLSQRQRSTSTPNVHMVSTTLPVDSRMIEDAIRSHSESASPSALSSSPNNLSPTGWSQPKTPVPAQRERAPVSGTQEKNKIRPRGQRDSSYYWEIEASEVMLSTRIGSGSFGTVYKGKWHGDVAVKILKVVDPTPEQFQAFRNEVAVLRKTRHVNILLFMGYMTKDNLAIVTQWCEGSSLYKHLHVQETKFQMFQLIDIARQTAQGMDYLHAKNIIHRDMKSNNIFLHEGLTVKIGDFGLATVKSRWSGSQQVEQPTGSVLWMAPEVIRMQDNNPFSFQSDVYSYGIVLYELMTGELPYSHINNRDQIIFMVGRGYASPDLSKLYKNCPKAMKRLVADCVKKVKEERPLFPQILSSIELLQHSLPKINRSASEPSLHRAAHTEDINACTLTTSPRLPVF
Chain of HCK (P08631 whole entry): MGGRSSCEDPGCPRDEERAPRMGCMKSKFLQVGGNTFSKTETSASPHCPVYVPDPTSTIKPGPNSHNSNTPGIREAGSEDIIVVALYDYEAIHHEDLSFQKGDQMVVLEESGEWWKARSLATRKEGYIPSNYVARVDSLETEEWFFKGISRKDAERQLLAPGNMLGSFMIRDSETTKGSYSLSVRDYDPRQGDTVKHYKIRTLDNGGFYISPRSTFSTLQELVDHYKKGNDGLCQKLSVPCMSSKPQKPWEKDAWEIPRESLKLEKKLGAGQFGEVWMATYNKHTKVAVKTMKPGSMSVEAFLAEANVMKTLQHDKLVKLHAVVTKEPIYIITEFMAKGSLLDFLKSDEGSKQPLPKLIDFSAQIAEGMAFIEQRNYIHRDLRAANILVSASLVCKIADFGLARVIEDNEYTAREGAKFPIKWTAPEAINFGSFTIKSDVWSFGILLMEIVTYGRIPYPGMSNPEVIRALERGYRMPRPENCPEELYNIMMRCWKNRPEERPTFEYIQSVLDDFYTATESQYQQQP
Chain of CSK (P41240 whole entry): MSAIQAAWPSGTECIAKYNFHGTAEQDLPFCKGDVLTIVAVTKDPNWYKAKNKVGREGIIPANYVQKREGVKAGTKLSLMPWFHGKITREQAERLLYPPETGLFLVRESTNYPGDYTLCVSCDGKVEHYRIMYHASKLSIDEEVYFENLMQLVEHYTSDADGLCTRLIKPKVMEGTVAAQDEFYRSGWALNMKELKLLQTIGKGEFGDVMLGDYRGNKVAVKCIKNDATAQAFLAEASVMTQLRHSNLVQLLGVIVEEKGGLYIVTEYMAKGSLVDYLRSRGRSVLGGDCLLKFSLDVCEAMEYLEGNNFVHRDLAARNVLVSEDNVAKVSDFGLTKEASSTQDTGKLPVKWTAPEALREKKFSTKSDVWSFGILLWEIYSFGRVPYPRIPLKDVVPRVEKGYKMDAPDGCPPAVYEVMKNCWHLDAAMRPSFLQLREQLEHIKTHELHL
Chain of p38a/MAPK14 (Q16539 whole entry): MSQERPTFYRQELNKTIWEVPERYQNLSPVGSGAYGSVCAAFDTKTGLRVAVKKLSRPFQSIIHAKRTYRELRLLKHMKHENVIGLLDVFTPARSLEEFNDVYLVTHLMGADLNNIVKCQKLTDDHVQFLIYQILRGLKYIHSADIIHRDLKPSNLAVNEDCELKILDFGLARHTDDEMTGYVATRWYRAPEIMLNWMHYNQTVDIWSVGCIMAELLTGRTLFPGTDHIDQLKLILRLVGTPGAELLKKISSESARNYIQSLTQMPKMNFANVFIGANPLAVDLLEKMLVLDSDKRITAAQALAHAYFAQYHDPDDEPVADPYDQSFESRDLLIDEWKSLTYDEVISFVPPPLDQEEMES

Cc1ccc(Nc2ncc3c(n2)N(C)C(=O)N(c2cc(NC(=O)c4ccc5c(c4)N(Cc4ccccc4)C(=O)[C@H](CC(C)C)N=C5c4ccccc4)ccc2C)C3)cn1 [Example 33, (S)-1-benzyl-3-isobutyl-N-(4-methyl-3-(1-methyl-7-((6-methylpyridin-3-yl)amino)-2-oxo-1,4-dihydropyrimido[4,5-d]pyrimidin-3(2H)-yl)phenyl)-2-oxo-5-phenyl-2,3-dihydro-1H-benzo[e][1,4]diazepine-8-carboxamide]
remaining activity at 1 µM [1]: ≤ 30% | remaining activity at 1 µM [2]: ≤ 30% | IC50 [3]: 1 to 200 nM | IC50 [4]: 1 to 200 nM | remaining activity at 1 µM [5]: ≤ 30% | remaining activity at 1 µM [6]: ≤ 30% | IC50 [7]: 1 to 200 nM | remaining activity at 1 µM [8]: ≤ 30% | remaining activity at 1 µM [9]: ≤ 30% | remaining activity at 1 µM [10]: ≤ 30% | IC50 [11]: > 600 nM | remaining activity at 1 µM [12]: ≤ 30% | remaining activity at 1 µM [13]: ≤ 30% | remaining activity at 1 µM [14]: ≤ 30% | IC50 [15]: 1 to 200 nM | IC50 [16]: 400 to 600 nM | remaining activity at 1 µM [17]: ≤ 30% | IC50 [18]: 400 to 600 nM | remaining activity at 1 µM [19]: ≤ 30% | IC50 [20]: > 600 nM
